Tests used:
[1] = system: subjects with thalassemia major; test: Retrospective study of cardiac disease (NYHA class, echocardiogram) and survival under chelation therapy; type: in vivo, human; conditions: for Percentage of patients with improvement of cardiac disease diagnosed at first assessment: NYHA classification; for Percentage of patients with worsening of the cardiac disease: overall, patients with at least 2 cardiac assessments; for Newly diagnosed cardiac disease: patients cardiac disease-free at first assessment with a second cardiac assessment; for Deaths during the study period: patients treated for 4 or more years; for Normalization of the Ejection Fraction (EF) during chelation therapy: patients with abnormal EF at first assessment (2 deferiprone, 1 desferrioxamine); for Improvement of the Systolic Function (SF): patients with abnormal SF at first echocardiographic assessment; for Percentage of patients with improvement of cardiac disease diagnosed at first assessment / Worsening of the cardiac disease in patients with previously diagnosed cardiac disease: patients with cardiac disease at first assessment
Protocol: The study was a single centre, retrospective analysis of medical records of the occurrence of cardiac disease and of the survival of all subjects with thalassemia major treated with deferiprone or with desferrioxamine at the Centro Microcitemie of the University of Turin since Jan. 1, 1995. The medical records were evaluated of all patients ≧5 year-old at the time of the start of the review period and who had the diagnosis of thalassemia major confirmed by laboratory tests (electrophoresis and/or DNA analysis) and clinical criteria (participant's hemoglobin and transfusion dependency).
In addition to the clinical evaluation and laboratory testing, patients underwent periodic cardiac examination and assessment by a cardiologist, which in addition to the physical examination included echocardiogram and 24-hour electrocardiographic Holter monitoring if indicated. Cardiac disease was classified, according to the criteria defined by the New York Heart Association ^17, by a cardiologist experienced in heart problems in subjects with hemoglobinopathies and who was unaware of the chelation therapy of the patients. Worsening of the Systolic Function (SF) or the Ejection Fraction (EF) was defined as an abnormal result at the last assessment in patients with a normal result at the first assessment for the study. Improvement was defined as a normal result at the last assessment for patients with an abnormal result at the first assessment. The first cardiac assessment was considered as the baseline value for each patient. For patients with more than one echocardiograph assessment within a year of the study, the change was based on the mean of the results of that year.
Starting in 1995, a substantial proportion of subjects followed up at the center were treated with deferiprone, in clinical trials or for compassionate therapy. For these patients, deferiprone was given in a dose of 25 mg/kg of body weight, three times per day. The remaining patients had maintained therapy with desferrioxamine (20 to 60 mg/kg/day), given as a subcutaneous infusion for 8 to 12 hour, 4 to 7 days a week except for one patient. Although 2 patients in the desferrioxamine group had their chelation intensified with intravenous chelation during the period of this review, they were not excluded from the analysis.
The Kaplan-Meier analysis of heart disease free survival for patients who were disease-free (NYHA class not applicable=0) at the beginning of the review period was performed by using the procedure LIFETEST from SAS (SAS Institute, Cary, N.C.). The primary comparison of the two groups was based on the log rank test. […] In addition to the Kaplan-Meier analysis, the incidence of patients with a worsening of their NYHA class from the first to the last cardiac assessment was determined for, each treatment group. Chi-square test was performed to compare the incidence between the two groups.

[2] = system: iron overload in patients with thalassemia major; test: Iron overload assessment in the retrospective study (serum ferritin, hepatic iron by SQUID, urinary iron excretion); type: in vivo, human; conditions: for Mean ± SD overall urinary iron excretion: during the study period
Protocol: All patients were subjected to the same transfusion regimen aimed at maintaining the pretransfusion hemoglobin levels at 9.5–10.0 g/dL and the mean hemoglobin at 12.0 g/dL. At each episode of red blood cell transfusion, each patient was interviewed and underwent clinical evaluation by a staff physician. The iron overload was determined by monthly assessment of the transfusional-iron input and by quarterly assessment of serum ferritin.
To evaluate the differences related to chelation therapy between the two groups of subjects, after the start of the study, 2 sample t-tests or Chi-square tests were performed to compare their transfusional iron input, serum ferritin, percentage of subjects with more than 50% of their serum ferritin data greater than 2500 μg/L during the study, compliance with chelation therapy, liver iron concentration and urinary iron excretion.

[3] = Serum / blood concentrations at standard doses; type: in vivo, human; conditions: current / standard formulation
Protocol: Although a serum concentration of 100 μM for deferiprone can occur with the administration of a single 25 mg/kg dose^22, the serum concentration of desferrioxamine in patients receiving 40 mg/kg/day is usually less than 10 μM.^23. Since the desferrioxamine concentrations used in the myocyte study were more than 10fold the expected serum concentrations, the in vivo cardioprotective effect of this chelator would be expected to be less than that of deferiprone, but not four times less protective placing the patient at a 4-fold greater likelihood of developing a worsening of their cardiac status with desferrioxamine.
Another factor may be related to the different pharmacokinetic characteristics of deferiprone and desferrioxamine when these drugs are given at standard doses, as in the present study. For example, deferiprone at 25 mg/kg, produces peak concentrations of approximately 100 μM with serum concentrations declining to about 10 μM in 6 hours, and this pattern is repeated three times daily, seven days a week. On the other hand, desferrioxamine at 40 mg/kg achieves concentrations of only 5–10 μM and only for the duration of the infusion (8–12 hours/day, 5–7 days per week). The long periods of time without the presence of an iron chelator may have a profound effect on the generation of iron-induced activity within myocytes and through non-transferrin bound iron. […]

[4] = system: subjects with thalassemia; test: Prospective clinical study of the Assignee in 187 subjects with thalassemia, heart failure; type: in vivo, human; conditions: treated for up to 5 years
Source text: The Assignee completed other studies wherein the largest prospective clinical study ever conducted for an iron chelator was made. One hundred eighty-seven subjects with thalassemia were enrolled in this trial conducted by Drs. A. Cohen, R. Galanello, A. Piga, and V. De […] in 3 centres in Italy and 1 center in the USA.

[5] = system: subjects with thalassemia major; conditions: one patient participating in the study (ref. 31); cited from earlier work
cardiac iron = conditions: cited from earlier work; for Change in T2 relaxation time in a randomized trial: mean treatment period of 22 months
[6] = system: iron-loaded rat neonatal myocytes; conditions: cited from earlier work; for Cardio-protective effects against iron-induced damage in neonatal rat myocytes: 100 μM; for Protecting the myocytes against iron-induced damage: at the concentrations used; for Removing iron from iron-loaded rat neonatal myocytes: in vitro
mouse model = mouse model of Gale et al; cited from earlier work
[7] = cited from earlier work
patients = conditions: large safety study; cited from earlier work

Row | SMILES | Percentage of patients with improvement of cardiac disease diagnosed at first assessment [1] | Worsening of the SF at the last assessment ([1]; number of patients) [patients] | Percentage of patients with worsening of the cardiac disease [1] | Newly diagnosed cardiac disease [1] [%] | Deaths during the study period [1] | Normalization of the Ejection Fraction (EF) during chelation therapy [1] | Improvement of the Systolic Function (SF) [1] | Worsening of the cardiac disease in patients with previously diagnosed cardiac disease [1] | Mean ± SD hepatic iron concentration - SQUID during the last year of the review period [2] [mg FE/g liver wet weight] | Percentage (%) of patients with more than 50% of their serum ferritin results > 2,500 μg/L during the review period [2] [%] | Mean ± SD overall urinary iron excretion [2] [mg Fe/day] | Mean serum ferritin ± SD at year 4 of the review period [2] [µg/L] | Change in T2 relaxation time in a randomized trial (cardiac iron) | Cardio-protective effects against iron-induced damage in neonatal rat myocytes [6] | Protecting the myocytes against iron-induced damage [6] | Removing iron from iron-loaded rat neonatal myocytes [6] | Reduction of iron concentrations from the heart (mouse model) | further results
1 | Cc1c(O)c(=O)ccn1C [Deferiprone, 1,2-dimethyl-3-hydroxypyrid-4one] | 40 (2/5) % | 2 | 4 (2/45) % | 5 | No patient | All three patients presented a normalization of the EF | 2 of the 4 | none of the 5 | 2.5 ± 1.2 | 33 | 18.1 ± 13.2 | 2402 ± 1331 | significant improvement | equal cardio-protective effects | equally effective | effective | none of the compounds studied, being desferrioxamine and deferiprone among others, reduced iron concentrations from the heart | Percentage of patients with improvement of cardiac disease diagnosed at first assessment ([1]; listed as deferiprone): 40%; Percentage of patients with worsening of the cardiac disease ([1]; listed as deferiprone): 4%; Time after which blood levels fall to very low levels [3]: about 4 hours; Occurrence of heart failure [4]: no heart failure occurred; Reversal of iron-induced congestive heart failure [5]: successful reversal; T2 relaxation time, after treatment (cardiac iron; 23 patients treated for over one year, normal 32 msec): 30.5 ± 6.7 ms; T2 relaxation time, before (cardiac iron; 23 patients, start value, normal 32 msec): 26.6 ± 8.4 ms; Serum concentrations declining to ([7]; 25 mg/kg, in 6 hours): about 10 μM; Peak concentrations ([7]; 25 mg/kg): approximately 100 μM; Serum concentration ([7]; single 25 mg/kg dose): 100 µM; Development of agranulocytosis (patients): about 1%
2 | CC(=O)N(O)CCCCCNC(=O)CCC(=O)N(O)CCCCCNC(=O)CCC(=O)N(O)CCCCCN [Desferrioxamine] | 27 (3/11) % | 6 | 17 (10/59) % | 19 | No patient | All three patients presented a normalization of the EF | 5 of the 8 | one of the 11 | 1.8 ± 1.0 | 21 | 15.5 ± 12.9 | 2050 ± 1319 | no change | equal cardio-protective effects | equally effective | effective | none of the compounds studied, being desferrioxamine and deferiprone among others, reduced iron concentrations from the heart | Percentage of patients with improvement of cardiac disease diagnosed at first assessment ([1]; listed as desferrioxamine): 27%; Likelihood to develop a worsening of cardiac status versus deferiprone-treated patients ([1]; desferrioxamine versus deferiprone, same period): 4 fold; Worsening of the EF ([1]; number of patients): 3 patients; Percentage of patients with worsening of the cardiac disease ([1]; listed as desferrioxamine): 17%; Iron removed, comparison of the two chelators ([6]; equimolar concentrations): removed more iron than deferiprone
